Article PMC3531393, “In Vitro Evaluation of ESE-15-ol, an Estradiol Analogue with Nanomolar Antimitotic and Carbonic Anhydrase Inhibitory Activity” (PLoS ONE, 2012)

Target: T1, carbonic anhydrase II (CAII) (Homo sapiens, UniProt P00918)
T1 construct: gene CA2; wild-type
Assay: […] exchange between CO2 and water by membrane-inlet mass spectrometry; Henderson tight-binding analysis
Type: biochemical

**Q.** Which Ki does the source give for `CCc1cc2c(cc1OS(N)(=O)=O)CC[C@@H]1C2CC[C@]2(C)[C@@H](O)C=C[C@@H]12` (stereo partly shown) [ESE-15-ol, 2-ethyl-3-O-sulphamoyl-estra-1,3,5(10),15-tetraen-17-ol] here?
**A.** Its Ki is 167 ± 19 nM.
